The record followed here is ChEMBL document CHEMBL4024707, “Using gene expression database to uncover biology functions of 1,4-disubstituted 1,2,3-triazole analogues synthesized via a copper (I)-catalyzed reaction” (Eur J Med Chem, 2017).

Usually IC50 stands for the concentration needed to halve the response being measured. The low end stands for greater potency, the high end for weaker potency.

Test [1] concerns Hep 3B2. The test can be described thus: Cytotoxicity against human Hep3B cells after 6 days by MTT assay. It counts as functional, cell-based. The following applies: 144 h. In general terms: Tetrazolium assays rely on reduction of a dye to a coloured formazan, in cell work by metabolically active cells.
A further test relates to HT-29. The test can be described thus: Cytotoxicity against human HT-29 cells after 6 days by MTT assay. The note with it: HT-29, 144 h. Format: functional, cell-based.
The subject of test [2] is Hep 3B2. The test can be described thus: Cell cycle arrest in human Hep3B cells assessed as accumulation at G2/M phase at 30 uM after 48 hrs by propidium iodide staining based flow cytometry (reference value: 36.6 +/- 2.9%). Format: functional.
Test [3] relates to Hep 3B2. The test can be described thus: Cell cycle arrest in human Hep3B cells assessed as accumulation at S phase at 30 uM after 48 hrs by propidium iodide staining based flow cytometry (reference value: 23.8 +/- 1.9%). Format: functional. For orientation: In flow cytometry, cells or beads pass a laser one at a time.
In test [4] the test system is Hep 3B2. The test can be described thus: Cell cycle arrest in human Hep3B cells assessed as accumulation at G0/G1 phase at 30 uM after 48 hrs by propidium iodide staining based flow cytometry (reference value: […] +/- […]%). It counts as functional.
In test [5] the test system is Hep 3B2. The test can be described thus: Induction of autophagy in human Hep3B cells assessed as ratio of LC3-2 to beta-actin level at 30 uM after 48 hrs by Western blot analysis. Format: functional. (Immunoblotting shows a protein as a band on a membrane.)
The test system of test [6] is Hep 3B2. The test can be described thus: Growth inhibition of human Hep3B cells at 30 uM after 48 hrs by MTT assay. Format: functional, cell-based.
The subject of test [7] is Hep 3B2. The test can be described thus: Cell cycle arrest in human Hep3B cells assessed as accumulation at sub-G1 phase at 30 uM after 48 hrs by propidium iodide staining based flow cytometry (reference value: 3.7 +/- 0.4%). Format: functional.
Test [8] deals with Hep 3B2. The test can be described thus: Induction of apoptosis in human Hep3B cells assessed as ratio of cleaved caspase-3 to beta actin level at 30 uM after 48 hrs by Western blot analysis. It counts as functional.

Active and inactive are the calls of the source. No cut-off for these calls is given here. Some results are limits rather than exact numbers.

Turning to `O=C1COc2cccnc2N1Cc1cn(Cc2ccccc2)nn1`, the figures for the IC50 with Hep 3B2 [1] and with HT-29 were 8.7 µM and 12.8 µM, respectively.
Regarding `CC(C)(C)c1ccc(Cn2cc(CN3C(=O)COc4ccccc43)nn2)cc1`, the figures for the half-maximal inhibitory concentration (IC50) with Hep 3B2 [1] and in the test on HT-29 were 25.6 µM and 25.1 µM, respectively.
The matching figures for `Cc1ccc2c(c1)N(Cc1cn(Cc3ccccc3)nn1)C(=O)CO2`: greater than 100 µM and greater than 100 µM.
For `COC(=O)Cn1cc(CN2C(=O)COc3ccccc32)nn1`, the IC50 was greater than 100 µM in the test with Hep 3B2 [1] and 50.8 µM with HT-29.
The matching figures for `O=C1COc2ccccc2N1Cc1cn(C/C=C/c2ccccc2)nn1`: 38.9 µM and greater than 100 µM.
As to `O=C1C(c2ccccc2)Oc2ccccc2N1Cc1cn(Cc2ccccc2)nn1` (stereo unspecified), the IC50 in the test on Hep 3B2 [1] and in the test with HT-29 was greater than 100 µM throughout.
As for `O=C1COc2ccc(Cl)cc2N1Cc1cn(Cc2ccccc2)nn1`, the concentration for half-maximal inhibition (IC50) with Hep 3B2 [1] was 55.5 µM; with HT-29 it was 76.5 µM.
With `CCC1Oc2ccccc2N(Cc2cn(Cc3ccccc3)nn2)C1=O` (stereo unspecified), the IC50 in the test on Hep 3B2 [1] and in the test with HT-29 was greater than 100 µM in each case.
Take `CCCCCCn1cc(CN2C(=O)COc3ccccc32)nn1`: the results for the IC50 with Hep 3B2 [1] and in the test on HT-29 were greater than 100 µM and 34.4 µM, respectively.
In the same order, the values of `COc1ccc2c(c1)OCC(=O)N2Cc1cn(Cc2ccccc2)nn1` are 9.2 µM and 9.3 µM.
`CCCC1Oc2ccccc2N(Cc2cn(Cc3ccccc3)nn2)C1=O` (stereo unspecified): the IC50 was 61.8 µM in the test on Hep 3B2 [1] and greater than 100 µM with HT-29.
`O=C1COc2ccccc2N1Cc1cn(Cc2ccccc2)nn1`: the IC50 is 84.5 µM in the test on Hep 3B2 [1] and greater than 100 µM in the test on HT-29.
In the same order, the values of `O=C1COc2ccccc2N1Cc1cn(CCc2ccccc2)nn1` are 66 µM and 48.8 µM.
In the same order, the values of `COc1ccc2c(c1)N(Cc1cn(Cc3ccccc3)nn1)C(=O)CO2` are greater than 100 µM and greater than 100 µM.
As for `Cc1ccc(Cn2cc(CN3C(=O)COc4ccccc43)nn2)cc1`, the IC50 with Hep 3B2 [1] was greater than 100 µM; in the test on HT-29 it was 28.6 µM.
In the same order, the values of `O=C1COc2ccccc2N1Cc1cn(Cc2cccc3ccccc23)nn1` are 15.2 µM and 17 µM.
For `CCOC(=O)c1ccc2c(c1)N(Cc1cn(Cc3ccccc3)nn1)C(=O)CO2`, the IC50 with Hep 3B2 [1] was 17.1 µM; in the test on HT-29, 41.5 µM.
In the case of `O=C1COc2cc(F)ccc2N1Cc1cn(Cc2ccccc2)nn1`, the IC50 in the test on Hep 3B2 [1] is 0.9 µM; in the test on HT-29 it was greater than 100 µM.
As for `COc1ccc(Cn2cc(CN3C(=O)COc4ccccc43)nn2)cc1`, the IC50 in the test with Hep 3B2 [1] is greater than 100 µM; with HT-29, 18.5 µM.
The matching figures for `Cc1ccc2c(c1)OCC(=O)N2Cc1cn(Cc2ccccc2)nn1`: greater than 100 µM and 54.9 µM.
As to `O=C1COc2ccccc2N1Cc1cn(CCc2c[nH]c3ccccc23)nn1`, the figures for the IC50 with Hep 3B2 [1] and in the test with HT-29 were 70 µM and 15.2 µM, respectively.
Take `COc1cc(/C=C/C(=O)CC(=O)/C=C/c2ccc(O)c(OC)c2)ccc1O` [CURCUMIN]: the Activity came to 46.7% with Hep 3B2 [2], 16.4% with Hep 3B2 [3], 22.7% with Hep 3B2 [4] and 14.2% in the test with Hep 3B2 [7]. The figures for the Ratio with Hep 3B2 [5] and with Hep 3B2 [8] were 6.6 and 1.2, respectively. The “growth inhibition (GI)” value in the test on Hep 3B2 [6] is “Active”.
With `CCOC(=O)Cn1cc(CN2C(=O)COc3ccccc32)nn1`, the concentration for half-maximal inhibition (IC50) turned out to be 19 µM in the test with Hep 3B2 [1] and 36.4 µM in the test on HT-29.
Regarding `O=C1COc2ccccc2N1Cc1cn(Cc2ccc3ccccc3n2)nn1`, the IC50 in the test on Hep 3B2 [1] and in the test with HT-29 was greater than 100 µM in each case.
With `O=C1COc2ccccc2N1Cc1cn(Cc2ccc([N+](=O)[O-])cc2)nn1`, the IC50 is 29.6 µM in the test on Hep 3B2 [1] and 15.6 µM in the test on HT-29.
Turning to `O=C1COc2ccc(F)cc2N1Cc1cn(Cc2ccccc2)nn1`, the IC50 with Hep 3B2 [1] and with HT-29 was greater than 100 µM in each case.
Turning to `O=C1COc2ccccc2N1Cc1cn(Cc2ccc(Cl)cc2)nn1`, the values for the IC50 in the test with Hep 3B2 [1] and in the test with HT-29 were greater than 100 µM and 21.9 µM, respectively.
In the same order, the values of `Cc1cc2c(cc1Cl)N(Cc1cn(Cc3ccccc3)nn1)C(=O)CO2` are greater than 100 µM and 19.6 µM.
